Patent US20030190396A1, “Methods and compositions for altering the sweetness delivery profile of sucralose” (priority 2002, published 2003)
Where a SMILES comes first, the peptide text is derived from it.

What was measured:
rats = details: cited from earlier work
[1] = Subcutaneous water retention in bodybuilders on a pre-competition diet (caliper test and visual inspection, Example 6); assay type: in vivo, human; details: ten bodybuilders; 12-week pre-competition diet with this sweetener only; caliper test and muscle definition score twice weekly
Method: This study was defined to determine whether the ingestion of sucralose results in reduced subcutaneous water retention compared to the water retention resulting from the ingestion of aspartame. Ten bodybuilders on a pre-competition diet were closely monitored. Prior to the pre-competition diet, the body fat and the weight of the ten bodybuilders were measured. Prior to this study, the participants in their normal diet refrained for one week from any products containing either sucralose or aspartame.
In the first phase of the study, during the 12-week pre-competition diet, the body builders consumed goods and liquids that were sweetened with aspartame only. Two methods for assessing subcutaneous water retention were used. […] As a second test, the subjective visual inspection was used, where the abdomen and overall body definition were visually inspected and photographed. As with the objective test, the subjects' muscle definition-value was determined twice weekly. A scale of 1 to 10 for muscle definition was used as an indicator for subcutaneous water retention, with a score of 10 indicating excellent muscle definition and 1 indicating poor definition. […]

[2] = Roberts, J. Appl. Nutr. 1988; cited from earlier work
[3] = in vivo; cited from earlier work

subcutaneous water retention [1]	SMILES	risk of causing cancer (rats)	water retention within the body [2]	sweetness intensity relative to sucrose [3]
–	O=C1NS(=O)(=O)c2ccccc21 [Saccharin]	reported to be a risk in causing cancer in rats	–	–
makes the body retain water	COC(=O)[C@H](Cc1ccccc1)NC(=O)[C@@H](N)CC(=O)O [aspartame, N-L-α-aspartyl-L-phenylalanine methyl ester] (H-Asp-Phe-OMe)	–	linked with excessive water retention within the body	–
This effect is reduced	OC[C@H]1O[C@H](O[C@]2(CCl)O[C@H](CCl)[C@@H](O)[C@@H]2O)[C@H](O)[C@@H](O)[C@H]1Cl [sucralose, 4,1′,6′-trichloro-4,1′,6′-trideoxygalactosucrose]	–	–	several hundred times that of sucrose
